US8101768B2, “Cyclic amine compound and pest control agent” (Nippon Soda Co., Ltd., priority 2004, dated 2012)

Assays:
Assay type in all cases: in vivo
army worms = experiment: Effect on Army Worm (artificial feed test); details: 10 μg of compound on 0.2 ml artificial feed, second instar, 25° C., 5 days
Protocol: Test feeds were prepared by filling plastic test tubes (capacity of 1.4 ml) with 0.2 ml of a commercial artificial feed (Insecta LFS, manufactured by Nosan Corporation). Each of 1% chemical compound solutions was prepared by using DMSO (containing 0.5% tween 20), which was then dropped into the surface of the feed in amount of 10 μg of the respective chemical compounds. 2 army worms, each of which was in the second instar, were inoculated into each of the test tubes, which were then sealed by their plastic caps. After they were left at 25° C. for 5 days, the rate of killed army worms and their feed consumptions were investigated. The test was repeated twice. […] 1-8, 1-9, 1-13, 1-15, 1-17, 1-22, 1-23, 1-27, 1-39, 1-45, 1-46, 1-59, 1-69, 1-72, 1-74, 1-75, 1-79, 1-80, 1-83, 1-95, 1-97, 1-981-100, 1-105, 1-108, 1-114, 1-133, 1-140, 1-147, 1-153, 1-165, 1-166, 1-181, 1-182, 1-183, 1-184, 1-187, 1-189, 1-190,

[1] = test system: organophosphorous agent resistant two-spotted spider mites; experiment: Effect on Two-spotted Spider Mite (spray on kidney bean leaves); details: 125 ppm, water dispersible powder of Formulation Example 1 sprayed, 17 female adults, 25° C., 65% humidity, 3 days
How it was run: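 Mortality of adult females counted after 3 days at 25 °C and 65% humidity, following a 125 ppm spray of wettable-powder dilution onto infested 7–10-day-old bean seedlings (17 mites per leaf). Two replicates.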

[2] = test system: acaricide resistant citrus red mites; experiment: Effect on Citrus Red Mite (spray on mandarin orange leaves); details: 31 ppm, emulsifiable concentrate of Formulation Example 2 sprayed, 10 female adults, 25° C., 65% humidity
Protocol: Effect on Citrus Red Mite
10 female adults of acaricide resistant citrus red mites were inoculated onto leaves of a mandarin orange placed on dishes, onto which each of liquid agents, diluted with water so as to adjust the respective concentration of the chemical compounds to 31 ppm according to the formulation of the emulsifiable concentrate shown in the aforementioned Formulation Example 2, was sprayed by using a rotating sparge tower. After they were left in a thermostatic chamber at 25° C. in 65% humidity for 3 days, and were then removed from the dishes, eggs laid for 3 days were investigated whether they could grow to adults or not on the eleventh day. As the results, the following chemical compounds killed 100% of the adults. 1-13, 1-15, 1-22, 1-27, 1-45, 1-54, 1-59, 1-63, 1-66, 1-69, 1-71, 1-72, 1-75, 1-80, 1-88, 1-89, 1-92, 1-93, 1-94, 1-97, 1-98, 1-100, 1-102, 1-105, 1-108, 1-133, 1-136, 1-142, 1-153, 1-181, 1-183, 1-186, 1-187, 1-188, 1-189, 1-190, 1-191,

SMILES: FC(F)(F)c1ccc(N2CCC(Oc3c(Cl)cc(OCC=C(Cl)Cl)c(Cl)c3Cl)CC2)nc1 [1-166]
- killed 100% of the army worms, or inhibited their feed consumptions, in comparison with a solvent control area, to 10% or less (effective) (army worms): effective

SMILES: CC(C)(C)COc1cc(C(F)(F)F)ccc1OC1CCN(c2ccc(C(F)(F)F)cn2)CC1 [1-114]
- rate of killed adults [1]: 100%
- killed 100% of the army worms, or inhibited their feed consumptions, in comparison with a solvent control area, to 10% or less (effective) (army worms): effective

SMILES: FC(F)(F)c1ccc(OC2CCN(c3ncc(C(F)(F)F)cc3Cl)CC2)cc1 [1-83]
- killed 100% of the army worms, or inhibited their feed consumptions, in comparison with a solvent control area, to 10% or less (effective) (army worms): effective

SMILES: FC(F)(F)c1ccc(N2C[C@H]3CC[C@@H](C2)[C@@H]3Oc2ccc(C(F)(F)F)cc2Br)nc1 [5-22]
- rate of killed adults [1]: 100%
- killed ... of the adults (eggs laid for 3 days investigated whether they could grow to adults on the eleventh day) [2]: 100%

SMILES: CCCC(O)c1cc(C(F)(F)F)ccc1OC1C2CCC1CN(c1ccc(C(F)(F)F)cn1)C2 (stereo not shown) [5-227]
- rate of killed adults [1]: 100%
- killed ... of the adults (eggs laid for 3 days investigated whether they could grow to adults on the eleventh day) [2]: 100%

SMILES: CC=CCOc1cc(C(F)(F)F)ccc1OC1C2CCC1CN(c1ccc(C(F)(F)F)cn1)C2 (mixture of isomers) [5-175]
- rate of killed adults [1]: 100%
- killed ... of the adults (eggs laid for 3 days investigated whether they could grow to adults on the eleventh day) [2]: 100%

SMILES: N#Cc1ccc(O[C@@H]2[C@@H]3CC[C@H]2CN(c2ccc(C(F)(F)F)cn2)C3)c(OCC2CC2)c1 [5-121]
- rate of killed adults [1]: 100%
- killed ... of the adults (eggs laid for 3 days investigated whether they could grow to adults on the eleventh day) [2]: 100%

SMILES: CCCOc1cc(C(F)(F)F)ccc1OC1CCN(c2ccc(C(F)(F)F)cn2)CC1(C)C(=O)OCC (stereo not shown) [1-95]
- killed 100% of the army worms, or inhibited their feed consumptions, in comparison with a solvent control area, to 10% or less (effective) (army worms): effective

SMILES: CCOC(=O)c1cc(C(F)(F)F)ccc1OC1C2CCC1CN(c1ccc(C(F)(F)F)cn1)C2 (stereo not shown) [5-233]
- rate of killed adults [1]: 100%
- killed ... of the adults (eggs laid for 3 days investigated whether they could grow to adults on the eleventh day) [2]: 100%

SMILES: CC1COC(c2cc(C(F)(F)F)ccc2O[C@@H]2[C@@H]3CC[C@H]2CN(c2ccc(C(F)(F)F)cn2)C3)N1 (stereo partly shown) [5-259]
- rate of killed adults [1]: 100%
- killed ... of the adults (eggs laid for 3 days investigated whether they could grow to adults on the eleventh day) [2]: 100%

SMILES: CCCOc1cc(C(F)(F)F)ccc1OC1CCN(c2ccc(C(F)(F)F)cn2)CC1 [1-92]
- rate of killed adults [1]: 100%
- killed ... of the adults (eggs laid for 3 days investigated whether they could grow to adults on the eleventh day) [2]: 100%

SMILES: CCC(OC)OCc1cc(C(F)(F)F)ccc1OC1C2CCC1CN(c1ccc(C(F)(F)F)cn1)C2 (stereo not shown) [5-222]
- rate of killed adults [1]: 100%
- killed ... of the adults (eggs laid for 3 days investigated whether they could grow to adults on the eleventh day) [2]: 100%

SMILES: COc1cc(C(F)(F)F)ccc1OC1CCN(c2ccc(C(F)(F)F)cn2)CC1 [1-88]
- rate of killed adults [1]: 100%
- killed ... of the adults (eggs laid for 3 days investigated whether they could grow to adults on the eleventh day) [2]: 100%

SMILES: FC(F)(F)c1ccc(N2CC3CCC(C2)C3Oc2ccc(C(F)(F)F)cc2C2C=CCO2)nc1 (stereo not shown) [5-236]
- rate of killed adults [1]: 100%
- killed ... of the adults (eggs laid for 3 days investigated whether they could grow to adults on the eleventh day) [2]: 100%

SMILES: O=[N+]([O-])c1ccc(OC2CCN(c3ccc(C(F)(F)F)cn3)CC2)cc1C(F)(F)F [1-39, 4-[4-nitro-3-(trifluoromethyl)phenoxy]-1-[5-(trifluoromethyl)-2-pyridyl]-piperidine]
- killed 100% of the army worms, or inhibited their feed consumptions, in comparison with a solvent control area, to 10% or less (effective) (army worms): effective

SMILES: CC1COC(c2cc(C(F)(F)F)ccc2OC2C3CCC2CN(c2ccc(C(F)(F)F)cn2)C3)O1 (stereo not shown) [5-218]
- rate of killed adults [1]: 100%
- killed ... of the adults (eggs laid for 3 days investigated whether they could grow to adults on the eleventh day) [2]: 100%

SMILES: CCCOc1cc(C(F)(F)F)ccc1OC1C2CCCC1CN(c1ccc(C(F)(F)F)cn1)C2 (stereo not shown) [7-82, 90-[2-propoxy-4-(trifluoromethyl)phenoxy]-3-[5-(trifluoromethyl)-2-pyridyl]-3-azabicyclo[3.3.1]nonane]
- rate of killed adults [1]: 100%
- killed ... of the adults (eggs laid for 3 days investigated whether they could grow to adults on the eleventh day) [2]: 100%

SMILES: FC(F)(F)c1ccc(N2CC3CCC(C2)C3Oc2ccc(C(F)(F)F)cc2OCC2OCCO2)nc1 (stereo not shown) [5-203]
- rate of killed adults [1]: 100%
- killed ... of the adults (eggs laid for 3 days investigated whether they could grow to adults on the eleventh day) [2]: 100%

SMILES: FC(F)(Br)Oc1ccc(OC2CCN(c3ccc(C(F)(F)F)cn3)CC2)cc1 [1-136]
- rate of killed adults [1]: 100%
- killed ... of the adults (eggs laid for 3 days investigated whether they could grow to adults on the eleventh day) [2]: 100%

SMILES: CCCOc1cc(C(F)(F)F)ccc1OC1C2CCC1CN(c1ccc(C(F)(F)F)cn1)C2 (stereo not drawn) [5-97, 8β-[2-propoxy-4-(trifluoromethyl)phenoxy]-3-[5-(trifluoromethyl)-2-pyridyl]-3-azabicyclo[3.2.1]octane]
- rate of killed adults [1]: 100%
- killed ... of the adults (eggs laid for 3 days investigated whether they could grow to adults on the eleventh day) [2]: 100%

SMILES: COCOC(C)c1cc(C(F)(F)F)ccc1O[C@@H]1[C@@H]2CC[C@H]1CN(c1ccc(C(F)(F)F)cn1)C2 (stereo partly shown) [5-73]
- rate of killed adults [1]: 100%
- killed ... of the adults (eggs laid for 3 days investigated whether they could grow to adults on the eleventh day) [2]: 100%

SMILES: COCc1cc(C(F)(F)F)ccc1OC1CCN(c2ccc(C(F)(F)F)cn2)CC1 [1-63]
- rate of killed adults [1]: 100%
- killed ... of the adults (eggs laid for 3 days investigated whether they could grow to adults on the eleventh day) [2]: 100%

SMILES: CCCOc1cc(C(F)(F)F)ccc1OC1CCN(c2ccc(C(F)(F)F)cn2)CC1C (stereo not shown) [1-98]
- rate of killed adults [1]: 100%
- killed ... of the adults (eggs laid for 3 days investigated whether they could grow to adults on the eleventh day) [2]: 100%

SMILES: C=CCOc1cc(C(F)(F)F)ccc1OC1CCN(c2ccc(C(F)(F)F)cn2)CC1 [1-142]
- rate of killed adults [1]: 100%
- killed ... of the adults (eggs laid for 3 days investigated whether they could grow to adults on the eleventh day) [2]: 100%

SMILES: CCCCOc1cc(C(F)(F)F)ccc1OC1C2CCC1CN(c1ccc(C(F)(F)F)cn1)C2 (stereo not shown) [5-224]
- rate of killed adults [1]: 100%
- killed ... of the adults (eggs laid for 3 days investigated whether they could grow to adults on the eleventh day) [2]: 100%

SMILES: FC(F)(F)c1cnc(N2CCC(Oc3c(Cl)cc(OCC=C(Cl)Cl)c(Cl)c3Cl)CC2)c(Cl)c1 [1-165]
- killed 100% of the army worms, or inhibited their feed consumptions, in comparison with a solvent control area, to 10% or less (effective) (army worms): effective

SMILES: COC(C)OCc1cc(C(F)(F)F)ccc1O[C@@H]1[C@@H]2CC[C@H]1CN(c1ccc(C(F)(F)F)cn1)C2 (stereo partly shown) [5-72]
- rate of killed adults [1]: 100%
- killed ... of the adults (eggs laid for 3 days investigated whether they could grow to adults on the eleventh day) [2]: 100%

SMILES: N#Cc1ccc(N2C[C@H]3CC[C@@H](C2)[C@@H]3Oc2ccc(C(F)(F)F)cc2OCC2CC2)nc1 [5-120]
- rate of killed adults [1]: 100%
- killed ... of the adults (eggs laid for 3 days investigated whether they could grow to adults on the eleventh day) [2]: 100%

SMILES: COCOc1cc(C(F)(F)F)ccc1O[C@@H]1[C@@H]2CC[C@H]1CN(c1ccc(C#N)cn1)C2 [5-111]
- rate of killed adults [1]: 100%
- killed ... of the adults (eggs laid for 3 days investigated whether they could grow to adults on the eleventh day) [2]: 100%

SMILES: CC(C)OCc1cc(C(F)(F)F)ccc1OC1C2CCC1CN(c1ccc(C(F)(F)F)cn1)C2 (stereo not shown) [5-225]
- rate of killed adults [1]: 100%
- killed ... of the adults (eggs laid for 3 days investigated whether they could grow to adults on the eleventh day) [2]: 100%

SMILES: CC(C)COc1cc(C(F)(F)F)ccc1O[C@@H]1[C@@H]2CC[C@H]1CN(c1ccc(C(F)(F)F)cn1)C2 [5-105]
- rate of killed adults [1]: 100%
- killed ... of the adults (eggs laid for 3 days investigated whether they could grow to adults on the eleventh day) [2]: 100%

SMILES: COC(=O)c1cc(C(F)(F)F)ccc1O[C@@H]1[C@@H]2CC[C@H]1CN(c1ccc(C(F)(F)F)cn1)C2 [5-243]
- rate of killed adults [1]: 100%
- killed ... of the adults (eggs laid for 3 days investigated whether they could grow to adults on the eleventh day) [2]: 100%

SMILES: CC(C)COc1cc(C(F)(F)F)ccc1OC1CCN(c2ccc(C(F)(F)F)cn2)CC1 [1-102]
- rate of killed adults [1]: 100%
- killed ... of the adults (eggs laid for 3 days investigated whether they could grow to adults on the eleventh day) [2]: 100%
